Values of other authors as cited in patent US20250235391A1, “Lip Balm Containing Caffeine, Nicotine or Testosterone” (Shear Kershman Laboratories, Inc., priority 2018, published 2025).

CCCCCc1cc(O)c2c(c1)OC(C)(C)[C@@H]1CCC(C)=C[C@@H]21 [Dronabinol, A9-tetrahydrocannabinol]
duration of action for psychoactive effects (after oral administration): 4 to 6 h
duration of appetite stimulant effect (after oral administration): ≥ 24 h
peak effect (time) (after oral administration): 2 to 4 h
maximal plasma levels (oral dosing of 20 mg in a sesame oil formulation): around 10 ng/ml
administered dose reaching systemic circulation (oral, first pass hepatic metabolism and high lipid solubility): 10-20%
absorbed after a single oral dose (single oral dose): 90-95%
